# From US20160213635A1, “COMPOSITIONS USEFUL IN THE PREVENTION OR TREATMENT OF SKIN CANCER” (GIULIANI S.P.A., priority 2013, published 2016)
# Assays:
# NHKs cells [1] = assay: Western Blot time course of p53, phospho-p53 and GADD45a after UVB irradiation and subsequent treatment with G01; type: cell-based, human; settings: post-treatment 90 μM
# Method: The NHKs cells were plated in the specific culture medium and maintained in culture for 24±2 h to allow adhesion to the plate. Subsequently, the plates identified as +UVB and +G01/UVB post were exposed, in the irradiation medium, to a UVB dose of 25. mJ/cm^2. The irradiation medium was then replaced with the culture medium containing the compound of the invention G01, in a concentration of 90 μM. Post-treatment times of 1-3-6-24 h were selected, after which the plates were processed for Western Blot protein determination. The protein expression of p53, phospho-p53, and GADD45a after UVB irradiation and post-treatment with the compound of the invention G01 was compared with the expression in the control cells (Ctr).
# NHKs cells [2] = assay: Western Blot assessment of ability to repair DNA damage after pre-treatment with G01 and subsequent UV irradiation; type: cell-based, human; settings: after UVB irradiation 25 mJ/cm^2, 6 h
# Method: The NHKs cells were plated in the specific culture medium and maintained in culture for 24±2 h to allow adhesion to the plate. Then, the keratinocytes were treated for 24±2 h with the compound of the invention G01, at concentrations of 60 μM and 90 μM. Subsequently, the plates identified as +UVA, +G01/UVA, +UVB, and +G01/UVB were respectively exposed, in the irradiation medium, to doses of UVA of 10 J/cm^2 and UVB of 25 mJ/cm^2, while the control plates (Ctr) and those treated only with G01 were maintained in the dark and at room temperature for a period of time equal to the irradiation time. The irradiation medium was then replaced with the culture medium. Based on the preliminary results obtained on a broader time range, a post-treatment time of 6 h was selected, after which the plates were processed for Western Blot protein determination.
# For each condition tested (treatment with G01 and/or UVA/UVB irradiation), the protein expression of the phosphorylated histone γH2AX, p53 and GADD45a (growth arrest and DNA damage response gene), known markers of DNA damage induced by UV radiation, was compared with the expression in the control cells (Ctr).
# NHKs cells [3] = assay: ELISA 8-OHdG determination after UVA irradiation and subsequent treatment with G01; type: cell-based, human; settings: post-treatment 90 μM; UVA 10 J/cm^2; both post-treatment times 6 h and 24 h; vs cells only irradiated
# Method: The NHKs cells were plated in the specific culture medium and maintained in culture for 24±2 h to allow adhesion to the plate. Then, the plates identified as +UVA and +UVA/G01 post were respectively exposed, in the irradiation medium, to a UVA dose of 10 J/cm^2. The irradiation medium was then replaced with the culture medium containing the compound of the invention G01, in a concentration of 90 μM. Based on preliminary results obtained on a broader time range, post-treatment times of 6 h and 24 h were selected, after which the plates were processed according to the procedure described in the work instruction specific for the DNA extraction. The determination of 8-OHdG, marker of DNA oxidative damage induced by UVA, was performed using a specific ELISA kit following the procedure described in the user manual.
# [4] = tested on: primary cultures of human keratinocytes, NHKs; assay: Cell viability after treatment with G01; type: cell-based; settings: eight different concentrations, 48±2 h, three NHKs cultures
# Method: The study is performed on primary cultures of human keratinocytes, NHKs. The cells (three different cultures of keratinocytesNHKs) were plated in the specific culture medium and maintained in culture for 24±2 h to allow adhesion to the plate. The cells were treated with eight different concentrations of the compound of the invention […] under evaluation, diluted in the culture medium, for 48±2 h. The values of cell viability for each concentration tested, resulting from the spectrophotometric reading, were compared with the value obtained from the control.
# NHKs cells [5] = assay: Western Blot assessment (non-cleaved caspase 3) of apoptosis induced by UV irradiation and subsequent treatment with G01; type: cell-based, human; settings: post-treatment 90 μM; UVA 25 J/cm^2, UVB 80 mJ/cm^2; 24 h
# Method: The NHKs cells were plated in the specific culture medium and maintained in culture for 24±2 h to allow adhesion to the plate. Subsequently, the plates identified as +UVA, +G01/UVA, +UVB, and +G01/UVB were respectively exposed, in the irradiation medium, to doses of UVA of 25 J/cm^2 and UVB of 80 mJ/cm^2, while the control plates (Ctr) and those treated only with the compound under examination (G01) were maintained in the dark and at room temperature for a period of time equal to the irradiation time. The irradiation medium was then replaced with the culture medium containing the compound G01, in a concentration of 90 μM. Based on the preliminary results obtained on a broader time range, a post-treatment time of 24 h was selected, after which the plates were processed for Western Blot protein determination. The protein expression of non-cleaved caspase 3 in each condition tested (treatment with the compound G01 under examination and/or UVA/UVB irradiation) was compared with the expression in the control cells.
# NHKs cells [6] = assay: ELISA CPDs determination after pre-treatment with G01 and subsequent UVB irradiation; type: cell-based, human; settings: pre-treatment 90 μM; UVB 80 mJ/cm^2; 6 h and 24 h
# Method: The NHKs cells were plated in the specific culture medium and maintained in culture for 24±2 h to allow adhesion to the plate. Then, the keratinocytes were treated for 24±2 h with the compound G01, in a concentration of 90 μM. Subsequently, the plates identified as +UVB and +G01/UVB were exposed, in the irradiation medium, to a UVB dose of 80 mJ/cm^2, while the control plates (Ctr) and those treated only with the compound under examination (G01) were maintained in the dark and at room temperature for a period of time equal to the irradiation time. The irradiation medium was then replaced with the culture medium. Based on the preliminary results obtained on a broader time range, post-treatment times of 6 h and 24 h were selected, after which the plates were processed according to the procedure described in the work instruction specific for the DNA extraction. The determination of the pyrimidine cyclobutane dimers, CPDs, was performed using a specific ELISA kit following the procedure described in the user manual.
# [7] = UVB 25 mJ/cm^2, shorter times of 1-3-6-24 h
compound,measurement,setting,value
"C/C=C/C=C/C=C/C(=O)O [G01, 2,4,6-trans-octatrienoic acid]",expression of the markers of DNA damage,NHKs cells [1]; 24 h after UVB irradiation 25 mJ/cm^2,decrease in the expression
same,levels of GADD45a,NHKs cells [1]; [7],acceleration of the increase
same,levels of p53,NHKs cells [1]; [7],acceleration of the increase
same,levels of phospho-p53,NHKs cells [1]; [7],acceleration of the increase
same,fraction of phosphorylated histone γH2AX,NHKs cells [2],reduced fraction
same,amount of 8-OHdG produced by UVA radiation,NHKs cells [3],significant reduction
same,cell viability (cellular toxicity) vs control,[4],absence of cellular toxicity
same,caspase 3 activation (protein expression of non-cleaved caspase 3),NHKs cells [5],reduce caspase 3 activation
same,CPDs adducts (pyrimidine cyclobutane dimers),NHKs cells [6],promote the removal of CPDs adducts
